Experimental data: patent publication US11534457B2, “Use of dextran sulfate” (priority 2017, dated 2022)

System: severe traumatic brain injury (sTBI)
Test: sTBI in rats, brain gene expression arrays and pathway analysis (Example 9)
Assay type: in vivo, Male Wistar rats
Conditions: 2 days after TBI
Experimental: The experimental protocol used in this study was approved by the Ethical Committee of the Catholic University of Rome, according to international standards and guidelines for animal care. Male Wistar rats of 300-350 g body weight were fed with standard laboratory diet and water ad libitum in a controlled environment. As the anesthetic mixture, the animals received 35 mg/kg b.w. ketamine and 0.25 mg/kg body weight midazolam by i.p. injection. Severe traumatic brain injury (sTBI) was induced by dropping a 450 g weight from 2 m height on to the rat head that had been protected by a metal disk previously fixed on the skull, according to the “weight drop” impact acceleration model (Marmarou et al., A new model of diffuse brain injury in rats. Part I: Pathophysiology and biomechanics. J Neurosurg. 1994; 80: 291-300). […] At the end of each period of treatment, rats were anesthetized again and then immediately sacrificed.
LMW-DS (Tikomed AB) was provided at a stock concentration of 20 mg/ml and was kept in a temperature-monitored refrigerator at 4° C. LMW-DS aliquots were diluted to the appropriate dosing concentration in sterile saline prior to delivery of a single subcutaneous injection.
Three doses of LMW-DS were administered subcutaneously 30 minutes post-TBI. The animals were sacrificed at 2 days post-TBI. The animals were divided into the following subgroups:
Three doses of LMW-DS were administered subcutaneously 30 minutes post-TBI. The animals were sacrificed at 7 days post-TBI. The animals were divided into the following subgroups:
An in vivo craniectomy was performed on all animals during anesthesia. After carefully removing the rat's skull, the brain was exposed and removed with a surgical spatula and quickly dropped in RNALater and preserved at 4° C. for further processing.
RNA extraction and array processing was carried out by SourceBioscience. The arrays used were the Agilent Rat expression arrays.
Statistical analysis was carried out using the Metaboanalyst software package. Gene expression changes of 10% with a p<0.05 were regarded as significant.
Pathway analysis of the differentially regulated genes was carried out using the Ingenuity pathway analysis package. The analysis was performed with special reference to pathways and molecular processes and diseases associated with neurodegenerative disease, including dementia, Alzheimer's disease, ALS, TBI and stroke, and with scarring and fibrosis, including glaucoma and normal pressure hydrocephalus (NPH) after subarachnoid haemorrhage.

[1] = TBI + 5 mg/kg LMW-DS, relative to control

Substance: low molecular weight dextran sulfate [LMW-DS]
- effect on canonical pathway Adrenomedullin Signaling pathway (TBI + 5 mg/kg LMW-DS): Inhibited
- effect on canonical pathway NF-κ13 Signaling (TBI + 5 mg/kg LMW-DS): Inhibited
- effect on canonical pathway Osteoarthritis Pathway (TBI + 5 mg/kg LMW-DS): Inhibited
- effect on canonical pathway Role of NFAT in Cardiac Hypertrophy (TBI + 5 mg/kg LMW-DS): Inhibited
- z score, Abdominal cancer (TBI + 5 mg/kg LMW-DS): −2.553
- z score, Abdominal carcinoma (TBI + 5 mg/kg LMW-DS): −2.631
- z score, Abdominal neoplasm (TBI + 5 mg/kg LMW-DS): −0.927
- z score, Apoptosis (TBI + 5 mg/kg LMW-DS): 0.601
- z score, Behavior (TBI + 5 mg/kg LMW-DS): −2.009
- z score, Carcinoma (TBI + 5 mg/kg LMW-DS): −2.071
- z score, Cell death (TBI + 5 mg/kg LMW-DS): 0.051
- z score, Cell death of antigen presenting cells (TBI + 5 mg/kg LMW-DS): −0.62
- z score, Cell death of immune cells (TBI + 5 mg/kg LMW-DS): −1
- z score, Cell death of tumor cell lines (TBI + 5 mg/kg LMW-DS): −1.947
- z score, Cell movement (TBI + 5 mg/kg LMW-DS): −3.723
- z score, Cell movement of tumor cell lines (TBI + 5 mg/kg LMW-DS): −2.078
- z score, Cell proliferation of leukocyte cell lines (TBI + 5 mg/kg LMW-DS): −2.754
- z score, Cellular homeostasis (TBI + 5 mg/kg LMW-DS): −3.19
- z score, Chemotaxis (TBI + 5 mg/kg LMW-DS): −3.642
- z score, Development of vasculature (TBI + 5 mg/kg LMW-DS): −1.534
- z score, Digestive organ tumor (TBI + 5 mg/kg LMW-DS): −1.149
- z score, Digestive system cancer (TBI + 5 mg/kg LMW-DS): −2.221
- z score, Edema (TBI + 5 mg/kg LMW-DS): 3.386
- z score, Epithelial neoplasm (TBI + 5 mg/kg LMW-DS): −1.393
- z score, Extracranial solid tumor (TBI + 5 mg/kg LMW-DS): −0.992
- z score, Feeding (TBI + 5 mg/kg LMW-DS): −0.895
- z score, Growth of tumor (TBI + 5 mg/kg LMW-DS): −1.233
- z score, Hematologic cancer (TBI + 5 mg/kg LMW-DS): −1.067
- z score, Incidence of tumor (TBI + 5 mg/kg LMW-DS): −0.731
- z score, Leukocyte migration (TBI + 5 mg/kg LMW-DS): −2.163
- z score, Leukopoiesis (TBI + 5 mg/kg LMW-DS): −3.549
- z score, Lymphocyte homeostasis (TBI + 5 mg/kg LMW-DS): −2.94
- z score, Lymphocytic cancer (TBI + 5 mg/kg LMW-DS): −0.48
- z score, Lymphocytic neoplasm (TBI + 5 mg/kg LMW-DS): −0.48
- z score, Lymphopoiesis (TBI + 5 mg/kg LMW-DS): −3.105
- z score, Lymphoproliferative disorder (TBI + 5 mg/kg LMW-DS): −0.48
- z score, Malignant solid tumor (TBI + 5 mg/kg LMW-DS): −1.492
- z score, Metabolism of hormone (TBI + 5 mg/kg LMW-DS): −1.632
- z score, Migration of cells (TBI + 5 mg/kg LMW-DS): −3.087
- z score, Necrosis (TBI + 5 mg/kg LMW-DS): −1.503
- z score, Neoplasia of leukocytes (TBI + 5 mg/kg LMW-DS): −0.48
- z score, Non-melanoma solid tumor (TBI + 5 mg/kg LMW-DS): −1.249
- z score, Proliferation of hematopoietic progenitor cells (TBI + 5 mg/kg LMW-DS): −2.951
- z score, Quantity of cells (TBI + 5 mg/kg LMW-DS): −3.092
- z score, Quantity of epithelial tissue (TBI + 5 mg/kg LMW-DS): −0.028
- z score, Quantity of neuroglia (TBI + 5 mg/kg LMW-DS): −1.446
- z score, Resorption of bone (TBI + 5 mg/kg LMW-DS): −0.478
- z score, Secretion of molecule (TBI + 5 mg/kg LMW-DS): 1.634
- z score, Synthesis of hormone (TBI + 5 mg/kg LMW-DS): −1.632
- z score, Transport of molecule (TBI + 5 mg/kg LMW-DS): 0.248
- z score, Vasculogenesis (TBI + 5 mg/kg LMW-DS): −2.274
- z score, canonical pathway Adrenomedullin Signaling pathway [1]: −2.236
- z score, canonical pathway NF-κb Signaling [1]: −2
- z score, canonical pathway Osteoarthritis Pathway [1]: −2.646
- z score, canonical pathway Role of NFAT in Cardiac Hypertrophy [1]: −1.63
- z score, Apoptosis (TBI + 15 mg/kg LMW-DS): −0.502
- z score, Apoptosis of tumor cell lines (TBI + 15 mg/kg LMW-DS): 0.09
- z score, Behavior (TBI + 15 mg/kg LMW-DS): −0.139
- z score, Cell death (TBI + 15 mg/kg LMW-DS): −0.141
- z score, Necrosis (TBI + 15 mg/kg LMW-DS): −0.477
- z score, Quantity of blood cells (TBI + 15 mg/kg LMW-DS): −0.34
- z score, Quantity of cells (TBI + 15 mg/kg LMW-DS): −0.797
- z score, Quantity of lymphocytes (TBI + 15 mg/kg LMW-DS): −0.943
- Diseases or functions annotation: Abdominal cancer (TBI + 1 mg/kg LMW-DS): Inhibited
- Diseases or functions annotation: Abdominal carcinoma (TBI + 1 mg/kg LMW-DS): Inhibited
- Diseases or functions annotation: Abdominal neoplasm (TBI + 1 mg/kg LMW-DS): Inhibited
- Diseases or functions annotation: Activation of blood cells (TBI + 1 mg/kg LMW-DS): Activated
- Diseases or functions annotation: Activation of cells (TBI + 1 mg/kg LMW-DS): Activated
- Diseases or functions annotation: Activation of leukocytes (TBI + 1 mg/kg LMW-DS): Activated
- Diseases or functions annotation: Activation of lymphocytes (TBI + 1 mg/kg LMW-DS): Inhibited
- Diseases or functions annotation: Adhesion of tumor cell lines (TBI + 1 mg/kg LMW-DS): Activated
- Diseases or functions annotation: Apoptosis (TBI + 1 mg/kg LMW-DS): Inhibited
- Diseases or functions annotation: Apoptosis of muscle cells (TBI + 1 mg/kg LMW-DS): Activated
- Diseases or functions annotation: Behavior (TBI + 1 mg/kg LMW-DS): Activated
- Diseases or functions annotation: Binding of tumor cell lines (TBI + 1 mg/kg LMW-DS): Activated
- Diseases or functions annotation: Carcinoma (TBI + 1 mg/kg LMW-DS): Inhibited
- Diseases or functions annotation: Cell death (TBI + 1 mg/kg LMW-DS): Inhibited
- Diseases or functions annotation: Cell death of blood cells (TBI + 1 mg/kg LMW-DS): Activated
- Diseases or functions annotation: Cell death of immune cells (TBI + 1 mg/kg LMW-DS): Activated
- Diseases or functions annotation: Cell movement (TBI + 1 mg/kg LMW-DS): Activated
- Diseases or functions annotation: Cell movement of muscle cells (TBI + 1 mg/kg LMW-DS): Inhibited
- Diseases or functions annotation: Cell movement of vascular smooth muscle cells (TBI + 1 mg/kg LMW-DS): Inhibited
- Diseases or functions annotation: Cell proliferation of T lymphocytes (TBI + 1 mg/kg LMW-DS): Inhibited
- Diseases or functions annotation: Cellular homeostasis (TBI + 1 mg/kg LMW-DS): Activated
- Diseases or functions annotation: Development of connective tissue cells (TBI + 1 mg/kg LMW-DS): Inhibited
- Diseases or functions annotation: Differentiation of bone cells (TBI + 1 mg/kg LMW-DS): Inhibited
- Diseases or functions annotation: Differentiation of connective tissue cells (TBI + 1 mg/kg LMW-DS): Activated
- Diseases or functions annotation: Differentiation of hematopoietic progenitor cells (TBI + 1 mg/kg LMW-DS): Activated
- Diseases or functions annotation: Differentiation of osteoclasts (TBI + 1 mg/kg LMW-DS): Inhibited
- Diseases or functions annotation: Digestive organ tumor (TBI + 1 mg/kg LMW-DS): Inhibited
- Diseases or functions annotation: Experimentally-induced arthritis (TBI + 1 mg/kg LMW-DS): Inhibited
- Diseases or functions annotation: Extracranial solid tumor (TBI + 1 mg/kg LMW-DS): Activated
- Diseases or functions annotation: Genital tumor (TBI + 1 mg/kg LMW-DS): Activated
- Diseases or functions annotation: Incidence of tumor (TBI + 1 mg/kg LMW-DS): Inhibited
- Diseases or functions annotation: Inflammation of absolute anatomical region (TBI + 1 mg/kg LMW-DS): Inhibited
- Diseases or functions annotation: Inflammation of body cavity (TBI + 1 mg/kg LMW-DS): Inhibited
- Diseases or functions annotation: Inflammation of joint (TBI + 1 mg/kg LMW-DS): Inhibited
- Diseases or functions annotation: Inflammation of organ (TBI + 1 mg/kg LMW-DS): Inhibited
- Diseases or functions annotation: Inflammatory response (TBI + 1 mg/kg LMW-DS): Activated
- Diseases or functions annotation: Interaction of mononuclear leukocytes (TBI + 1 mg/kg LMW-DS): Activated
- Diseases or functions annotation: Leukocyte migration (TBI + 1 mg/kg LMW-DS): Activated
- Diseases or functions annotation: Leukopoiesis (TBI + 1 mg/kg LMW-DS): Activated
- Diseases or functions annotation: Lymphopoiesis (TBI + 1 mg/kg LMW-DS): Activated
- Diseases or functions annotation: Malignant solid tumor (TBI + 1 mg/kg LMW-DS): Inhibited
